Where two headings read alike, the source gives them in different places. Where no end group is shown, it is not given here.
What was measured:
bacteria = conditions: acts by blocking the synthesis of macromolecules; ref [28]; cited from earlier work
Excerpt: (§1) AMPs are prevalent in all forms of life. They are part of the natural defense mechanism of the organism. […] Another such small peptide that has the potential to be useful against drug-resistant bac ...

E. coli = conditions: also cause cell death; ref [29]; cited from earlier work
Excerpt: as §1

[1] = molecular target: peptide 33 (bacteriophage P4 (designed variant)) (UniProt P05460); assay: competition; conditions: EMSA/competition: 10 mM Tris-HCl pH 8.0, 250 mM NaCl, 37 C, 10 min, 10 nM labeled nucleic acid, fluorescence: 10 mM Tris-Cl pH 8, 500 mM NaCl, 20-37 C, scale: fold excess over 292 bp dsDNA for 50% release
bacterial cells = conditions: cited from earlier work
[2] = molecular target: peptide 33 (bacteriophage P4 (designed variant)) (UniProt P05460); assay: EMSA; conditions: EMSA/competition: 10 mM Tris-HCl pH 8.0, 250 mM NaCl, 37 C, 10 min, 10 nM labeled nucleic acid, fluorescence: 10 mM Tris-Cl pH 8, 500 mM NaCl, 20-37 C
dsDNA = conditions: ref [30], [31], [32]; cited from earlier work
Excerpt: as §1

Compound: Pleurocidin
- antibacterial activity (bacteria): broad-spectrum antibacterial activity

Compound: HNP-2: human neutrophils-derived peptide defensin (CYCRIPACIAGERRYGTCIYQGRLWAFCC; ends and bridges not checked; cysteine pairing not given here; UniProt P59665 66-94, looked up)
- inhibition of DNA, RNA, and protein synthesis (E. coli): inhibit the synthesis of DNA, RNA, and proteins

Compound: lambda tR1 RNA (284 nt)
- binding signal [1]: 2.8

Compound: NCC[C@H](O)C(=O)N[C@@H]1C[C@H](N)[C@@H](O[C@H]2O[C@H](CN)[C@@H](O)[C@H](O)[C@H]2O)[C@H](O)[C@H]1O[C@H]1O[C@H](CO)[C@@H](O)[C@H](N)[C@H]1O [amikacin]
- elongated cell phenotype (bacterial cells; ref [21]): elongated cells phenotypes

Compound: TGATCCTCCTCCTCCTGATCCTCCTCCTCCTGATCCTCCTCCTCCTGAGCGTTTCATCATTTCGAAGAAATCGTC [75-mer ssDNA (RS2230)]
- binding signal [1]: 9.5
- Kd [2]: 740 nM

Compound: 283 nt gfc RNA
- Kd [2]: 1000 nM

Compound: 499 bp dsDNA
- Kd [2]: 4700 nM

Compound: 292 bp dsDNA
- Kd [2]: 2750 nM

Compound: O=C(N[C@H](CO)[C@H](O)c1ccc([N+](=O)[O-])cc1)C(Cl)Cl [chloramphenicol]
- elongated cell phenotype (bacterial cells; ref [21], [22]): elongated cells phenotypes

Compound: gentamycin
- elongated cell phenotype (bacterial cells; ref [23]): elongated cells phenotypes

Compound: NC[C@H]1O[C@H](O[C@H]2[C@H](O)[C@@H](O[C@H]3O[C@H](CO)[C@@H](O)[C@H](N)[C@H]3O)[C@H](N)C[C@@H]2N)[C@H](O)[C@@H](O)[C@@H]1O [kanamycin]
- elongated cell phenotype (bacterial cells; ref [20]): elongated cells phenotypes

Compound: indolicidin: 13-mer peptide with tryptophan-rich sequences of the cathelicidin family of host defense peptides (ILPWKWPWWPWRR; ends and bridges not checked; UniProt P33046 131-143, looked up)
- binding to dsDNA (dsDNA): binds to dsDNA

Compound: 160 bp dsDNA
- Kd [2]: 4000 nM

Compound: HNP-1: human neutrophils-derived peptide defensin
- inhibition of DNA, RNA, and protein synthesis (E. coli): inhibit the synthesis of DNA, RNA, and proteins

Compound: ATCTTCTCTCATCCGCCAAAACAGCC [26-mer ssDNA (RS1816)]
- Kd [2]: 2000 nM

Compound: HNP-3: human neutrophils-derived peptide defensin
- inhibition of DNA, RNA, and protein synthesis (E. coli): inhibit the synthesis of DNA, RNA, and proteins

Compound: O=C(O)c1cn(C2CC2)c2cc(N3CCNCC3)c(F)cc2c1=O [ciprofloxacin]
- elongated cell phenotype (bacterial cells; ref [19]): elongated cells phenotypes

Source: publication PMC10692717, “Peptides designed from a bacteriophage capsid protein function as synthetic transcription repressors” (The Journal of Biological Chemistry, 2023)
